Measurements taken from ChEMBL document CHEMBL3525983, “Pharmacokinetics, metabolism, and disposition of rivoglitazone, a novel peroxisome proliferator-activated receptor γ agonist, in rats and monkeys” (Drug Metab Dispos, 2011).

What was measured:
[1] = AUC (0 to t) in F344/DuCrlCrlj rat at 1 mg/kg, po administered via gavage by LC-MS/MS analysis; type: ADME, organism-based; design: dose 1 mg/kg, dosed compound name [14C]Rivoglitazone, route oral; conditions: plasma
[2] = Tmax in F344/DuCrlCrlj rat at 0.1 mg/kg, po administered via gavage by LC-MS/MS analysis; type: ADME, organism-based; design: dose 0.1 mg/kg, dosed compound name [14C]Rivoglitazone, route oral; conditions: in vivo
[3] = Oral bioavailability in F344/DuCrlCrlj rat at 0.1 mg/kg administered via gavage by LC-MS/MS analysis; type: ADME, organism-based; design: dosed compound name [14C]Rivoglitazone; conditions: in vivo
[4] = AUC (0 to infinity) in F344/DuCrlCrlj rat at 0.5 mg/kg, iv administered via tail vein by LC-MS/MS analysis; type: ADME, organism-based; design: time infinity, dose 0.5 mg/kg, dosed compound name [14C]Rivoglitazone, route intravenous; conditions: plasma
[5] = Tmax in F344/DuCrlCrlj rat at 1 mg/kg, po administered via gavage by LC-MS/MS analysis; type: ADME, organism-based; design: dose 1 mg/kg, dosed compound name [14C]Rivoglitazone, route oral; conditions: in vivo
[6] = Total clearance in F344/DuCrlCrlj rat at 0.1 mg/kg, iv administered via tail vein by LC-MS/MS analysis; type: ADME, organism-based; design: dose 0.1 mg/kg, dosed compound name [14C]Rivoglitazone, route intravenous; conditions: in vivo
[7] = Terminal elimination half life in monkey at 0.986 mg/kg, iv administered via tail vein by LC-MS/MS analysis; type: ADME, organism-based, Macaca mulatta; design: dose 0.986 mg/kg, dosed compound name [14C]Rivoglitazone, route intravenous; conditions: rhesus monkey, in vivo, read-out: beta t1/2 (converted)
[8] = Terminal elimination half life in monkey at 0.986 mg/kg, po administered via gavage by LC-MS/MS analysis; type: ADME, organism-based, Macaca mulatta; design: dose 0.986 mg/kg, dosed compound name [14C]Rivoglitazone, route oral; conditions: rhesus monkey, in vivo, read-out: beta t1/2 (converted)
[9] = Terminal elimination half life in monkey at 0.0986 mg/kg, po administered via gavage by LC-MS/MS analysis; type: ADME, organism-based, Macaca mulatta; design: dose 0.0986 mg/kg, dosed compound name [14C]Rivoglitazone, route oral; conditions: rhesus monkey, in vivo, read-out: beta t1/2 (converted)
[10] = AUC (0 to infinity) in monkey at 0.986 mg/kg, po administered via gavage by LC-MS/MS analysis; type: ADME, organism-based, Macaca mulatta; design: time infinity, dose 0.986 mg/kg, dosed compound name [14C]Rivoglitazone, route oral; conditions: rhesus monkey, plasma
[11] = Terminal elimination half life in monkey at 0.0986 mg/kg, iv administered via tail vein by LC-MS/MS analysis; type: ADME, organism-based, Macaca mulatta; design: dose 0.0986 mg/kg, dosed compound name [14C]Rivoglitazone, route intravenous; conditions: rhesus monkey, in vivo, read-out: beta t1/2 (converted)
[12] = Retention time of the compound by LC-MS/MS analysis; type: physicochemical; design: dosed compound name [14C]Rivoglitazone
[13] = Apparent total clearance in F344/DuCrlCrlj rat at 0.1 mg/kg, po administered via gavage by LC-MS/MS analysis; type: ADME, organism-based; design: dose 0.1 mg/kg, dosed compound name [14C]Rivoglitazone, route oral; conditions: in vivo, read-out: CLt/F
[14] = Cmax in monkey at 0.493 mg/kg, po administered via gavage by LC-MS/MS analysis; type: ADME, organism-based, Macaca mulatta; design: dose 0.493 mg/kg, dosed compound name [14C]Rivoglitazone, route oral; conditions: rhesus monkey, in vivo
[15] = AUC (0 to infinity) in F344/DuCrlCrlj rat at 0.5 mg/kg, po administered via gavage by LC-MS/MS analysis; type: ADME, organism-based; design: time infinity, dose 0.5 mg/kg, dosed compound name [14C]Rivoglitazone, route oral; conditions: plasma
[16] = Drug excretion in monkey urine assessed as unchanged compound at 1 mg/kg, po administered via gavage measured during 0 to 72 hrs by radio-HPLC analysis; type: ADME, organism-based, Macaca mulatta; design: dose 1 mg/kg, dosed compound name [14C]Rivoglitazone, route oral; conditions: rhesus monkey, read-out: Compound recovery
[17] = AUC (0 to infinity) in monkey at 0.986 mg/kg, iv administered via tail vein by LC-MS/MS analysis; type: ADME, organism-based, Macaca mulatta; design: time infinity, dose 0.986 mg/kg, dosed compound name [14C]Rivoglitazone, route intravenous; conditions: rhesus monkey, plasma
[18] = Cmax in monkey at 0.986 mg/kg, po administered via gavage by LC-MS/MS analysis; type: ADME, organism-based, Macaca mulatta; design: dose 0.986 mg/kg, dosed compound name [14C]Rivoglitazone, route oral; conditions: rhesus monkey, in vivo
[19] = AUC (0 to t) in monkey at 0.493 mg/kg, po administered via gavage by LC-MS/MS analysis; type: ADME, organism-based, Macaca mulatta; design: dose 0.493 mg/kg, dosed compound name [14C]Rivoglitazone, route oral; conditions: rhesus monkey, plasma
[20] = Apparent total clearance in monkey at 0.493 mg/kg, po administered via gavage by LC-MS/MS analysis; type: ADME, organism-based, Macaca mulatta; design: dose 0.493 mg/kg, dosed compound name [14C]Rivoglitazone, route oral; conditions: rhesus monkey, in vivo, read-out: CLt/F
[21] = Tmax in monkey at 0.0986 mg/kg, po administered via gavage by LC-MS/MS analysis; type: ADME, organism-based, Macaca mulatta; design: dose 0.0986 mg/kg, dosed compound name [14C]Rivoglitazone, route oral; conditions: rhesus monkey, in vivo
[22] = system: Plasma; experiment: Drug uptake in monkey plasma assessed as unchanged compound at 1 to 5 mg/kg, po administered as single dose via gavage by LC-MS/MS analysis; type: ADME, organism-based, Macaca mulatta; design: dose 1-5 mg/kg, dosed compound name [14C]Rivoglitazone, route oral; conditions: rhesus monkey, in vivo
[23] = Terminal elimination half life in monkey at 0.493 mg/kg, iv administered via tail vein by LC-MS/MS analysis; type: ADME, organism-based, Macaca mulatta; design: dose 0.493 mg/kg, dosed compound name [14C]Rivoglitazone, route intravenous; conditions: rhesus monkey, in vivo, read-out: beta t1/2 (converted)
[24] = Terminal elimination half life in F344/DuCrlCrlj rat at 0.1 mg/kg, iv administered via tail vein by LC-MS/MS analysis; type: ADME, organism-based; design: dose 0.1 mg/kg, dosed compound name [14C]Rivoglitazone, route intravenous; conditions: in vivo, read-out: beta t1/2 (converted)
[25] = Oral bioavailability in monkey at 0.0986 mg/kg administered via gavage by LC-MS/MS analysis; type: ADME, organism-based, Macaca mulatta; design: dosed compound name [14C]Rivoglitazone; conditions: rhesus monkey, in vivo
[26] = Terminal elimination half life in F344/DuCrlCrlj rat at 0.1 mg/kg, po administered via gavage by LC-MS/MS analysis; type: ADME, organism-based; design: dose 0.1 mg/kg, dosed compound name [14C]Rivoglitazone, route oral; conditions: in vivo, read-out: beta t1/2 (converted)
[27] = AUC (0 to t) in monkey at 0.493 mg/kg, iv administered via tail vein by LC-MS/MS analysis; type: ADME, organism-based, Macaca mulatta; design: dose 0.493 mg/kg, dosed compound name [14C]Rivoglitazone, route intravenous; conditions: rhesus monkey, plasma
[28] = Volume of distribution at steady state in monkey at 0.986 mg/kg, iv administered via tail vein by LC-MS/MS analysis; type: ADME, organism-based, Macaca mulatta; design: dose 0.986 mg/kg, dosed compound name [14C]Rivoglitazone, route intravenous; conditions: rhesus monkey, in vivo, read-out: Vdss
[29] = Volume of distribution at steady state in F344/DuCrlCrlj rat at 0.1 mg/kg, iv administered via tail vein by LC-MS/MS analysis; type: ADME, organism-based; design: dose 0.1 mg/kg, dosed compound name [14C]Rivoglitazone, route intravenous; conditions: in vivo, read-out: Vdss
[30] = Drug excretion in monkey feces assessed as unchanged compound at 1 mg/kg, po administered via gavage measured during 0 to 72 hrs by radio-HPLC analysis; type: ADME, organism-based, Macaca mulatta; design: dose 1 mg/kg, dosed compound name [14C]Rivoglitazone, route oral; conditions: rhesus monkey, read-out: Compound recovery
[31] = AUC (0 to t) in F344/DuCrlCrlj rat at 0.5 mg/kg, po administered via gavage by LC-MS/MS analysis; type: ADME, organism-based; design: dose 0.5 mg/kg, dosed compound name [14C]Rivoglitazone, route oral; conditions: plasma
[32] = AUC (0 to infinity) in F344/DuCrlCrlj rat at 0.1 mg/kg, po administered via gavage by LC-MS/MS analysis; type: ADME, organism-based; design: time infinity, dose 0.1 mg/kg, dosed compound name [14C]Rivoglitazone, route oral; conditions: plasma
[33] = system: Rattus norvegicus; experiment: Drug uptake in F344/DuCrlCrlj rat plasma assessed as unchanged compound at 1 to 5 mg/kg, po administered as single dose via gavage by LC-MS/MS analysis; type: ADME, organism-based; design: dose 1-5 mg/kg, dosed compound name [14C]Rivoglitazone, route oral; conditions: in vivo
[34] = system: Plasma; experiment: Drug metabolism in F344/DuCrlCrlj rat plasma assessed as 2-((4-((2,4-dioxothiazolidin-5-yl)methyl)phenoxy)methyl)-1-methyl-1H-benzo[d]imidazol-6-yl hydrogen sulfate formation at 1 to 5 mg/kg, po administered as single dose via gavage by LC-MS/MS analysis; type: ADME, organism-based; design: dose 1-5 mg/kg, dosed compound name [14C]Rivoglitazone, route oral; conditions: in vivo
[35] = Drug excretion in bile duct-cannulated rat feces assessed as unchanged compound level administered through intravenous by radio-HPLC analysis; type: ADME; design: dosed compound name [14C]Rivoglitazone; conditions: read-out: Compound recovery
[36] = AUC (0 to infinity) in F344/DuCrlCrlj rat at 1 mg/kg, po administered via gavage by LC-MS/MS analysis; type: ADME, organism-based; design: time infinity, dose 1 mg/kg, dosed compound name [14C]Rivoglitazone, route oral; conditions: plasma
[37] = Apparent total clearance in F344/DuCrlCrlj rat at 1 mg/kg, po administered via gavage by LC-MS/MS analysis; type: ADME, organism-based; design: dose 1 mg/kg, dosed compound name [14C]Rivoglitazone, route oral; conditions: in vivo, read-out: CLt/F
[38] = AUC (0 to t) in F344/DuCrlCrlj rat at 0.5 mg/kg, iv administered via tail vein by LC-MS/MS analysis; type: ADME, organism-based; design: dose 0.5 mg/kg, dosed compound name [14C]Rivoglitazone, route intravenous; conditions: plasma
[39] = Tmax in monkey at 0.986 mg/kg, po administered via gavage by LC-MS/MS analysis; type: ADME, organism-based, Macaca mulatta; design: dose 0.986 mg/kg, dosed compound name [14C]Rivoglitazone, route oral; conditions: rhesus monkey, in vivo
[40] = Volume of distribution at steady state in monkey at 0.0986 mg/kg, iv administered via tail vein by LC-MS/MS analysis; type: ADME, organism-based, Macaca mulatta; design: dose 0.0986 mg/kg, dosed compound name [14C]Rivoglitazone, route intravenous; conditions: rhesus monkey, in vivo, read-out: Vdss
[41] = Oral bioavailability in monkey at 0.986 mg/kg administered via gavage by LC-MS/MS analysis; type: ADME, organism-based, Macaca mulatta; design: dosed compound name [14C]Rivoglitazone; conditions: rhesus monkey, in vivo
[42] = AUC (0 to t) in F344/DuCrlCrlj rat at 0.1 mg/kg, po administered via gavage by LC-MS/MS analysis; type: ADME, organism-based; design: dose 0.1 mg/kg, dosed compound name [14C]Rivoglitazone, route oral; conditions: plasma

COc1ccc2nc(COc3ccc(CC4SC(=O)NC4=O)cc3)n(C)c2c1.Cl (racemic)
AUC(0-t) [1]: 48500 ng·h/mL | Tmax [2]: 3.25 h | bioavailability [3]: 98.1% | AUC(0-inf) [4]: 22900 ng·h/mL | Tmax [5]: 2.25 h | clearance [6]: 0.329 mL/min/kg | half-life [7]: 6.79 h | half-life [8]: 7.34 h | half-life [9]: 8.33 h | AUC(0-inf) [10]: 43100 ng·h/mL | half-life [11]: 6.38 h | Retention_time [12]: 23 min | CL/F [13]: 0.354 mL/min/kg | Cmax [14]: 1330 ng/mL | AUC(0-inf) [15]: 21800 ng·h/mL | dose excreted [16]: 0.3% | AUC(0-inf) [17]: 57200 ng·h/mL | Cmax [18]: 2930 ng/mL | AUC(0-t) [19]: 17200 ng·h/mL | CL/F [20]: 0.485 mL/min/kg | Tmax [21]: 3 h | Compound recovery [22]: metabolite_detected | half-life [23]: 6.21 h | half-life [24]: 4.55 h | bioavailability [25]: 106% | half-life [26]: 4.35 h | AUC(0-t) [27]: 21700 ng·h/mL | Vd [28]: 0.138 L/kg | Vd [29]: 0.125 L/kg | dose excreted [30]: 23.5% | AUC(0-t) [31]: 21000 ng·h/mL | AUC(0-inf) [32]: 4450 ng·h/mL | Compound recovery [33]: metabolite_detected | Compound recovery [34]: metabolite_detected | dose excreted [35]: 2.3% | AUC(0-inf) [36]: 49800 ng·h/mL | CL/F [37]: 0.304 mL/min/kg | AUC(0-t) [38]: 22300 ng·h/mL | Tmax [39]: 3.5 h | Vd [40]: 0.166 L/kg | bioavailability [41]: 76.1% | AUC(0-t) [42]: 4340 ng·h/mL
